Data taken from patent publication US9169268B2, “Use of 7-alkoxy fangchinoline compounds in preventing, alleviating and/or treating depression” (Peking University, priority 2012, dated 2015).

Assays:
[1] = Serum AST and ALT in mice after 14 days of intragastric administration; format: in vivo; conditions: mouse, in vivo, 60 mg/kg/day
Description: Blood was collected from epicanthal, stood at room temperature for about 2 hours, and centrifuged for 12 minutes at 3000 r/min after coagulation. The serum was removed and centrifuged again. Alanine transaminase (ALT) and aspartate transaminase (AST) levels were determined

[2] = tested on: chronic unpredictable stress (CUS) model in rats; experiment: Elevated plus-maze (EPM) anxiety test in CUS model in rats; format: in vivo; conditions: for anti-anxiety-like effect: doses of 30 and 60 mg/kg
Description: (§1) The chronic unpredictable stress model is usually used as a depression model. The experimental method is as follows. Stimulation includes forced swimming (10° C., 6 min), tail clamping (1 cm from the tail tip, 1 min), water deprivation (24 h), fasting (24 h), isolated housing (24 h), tail suspension (1 h), immobility (2 h), high-speed horizontal oscillation (120 times/min, 1 h), foot shock for 45 minutes (mean 1 mA, time course 1 s, once/min). These stressors were randomly scheduled over a one-week period and repeated throughout the 23-day experiment. The non-stress control group was housed under normal conditions. Time: between 9:00 a.m. and 2:00 p.m. Since Day 15, the animals in each group were daily intragastrically administered with the subject medicament and double distilled water based on body weight (blank group and CUS model group) respectively, 60 minutes before the stress. […] Behavior and sleep electroencephalogram analyses were carried out on Day 22-23 of the stress. On Day 21, 60 minutes after the final administration, a sucrose solution intake test was carried out and sleep electroencephalogram was recorded simultaneously. On Day 22, EPM and forced swimming tests were carried out.

[3] = tested on: chronic unpredictable stress (CUS) model in rats; experiment: Autonomous movement in CUS model in rats; format: in vivo; conditions: 7 days
Description: as §1

[4] = tested on: chronic unpredictable stress (CUS) model in rats; experiment: Sucrose solution preference in CUS model in rats; format: in vivo; conditions: 7 days
Description: as §1

[5] = target: GSK-3β (Homo sapiens, UniProt P49841); experiment: GSK-3β activity assay (Z′-LYTE); format: biochemical; conditions: n = 3; read-out: Mean EC50 in the inhibition of GSK-3β activity
GSK-3β, sequence (P49841 whole entry): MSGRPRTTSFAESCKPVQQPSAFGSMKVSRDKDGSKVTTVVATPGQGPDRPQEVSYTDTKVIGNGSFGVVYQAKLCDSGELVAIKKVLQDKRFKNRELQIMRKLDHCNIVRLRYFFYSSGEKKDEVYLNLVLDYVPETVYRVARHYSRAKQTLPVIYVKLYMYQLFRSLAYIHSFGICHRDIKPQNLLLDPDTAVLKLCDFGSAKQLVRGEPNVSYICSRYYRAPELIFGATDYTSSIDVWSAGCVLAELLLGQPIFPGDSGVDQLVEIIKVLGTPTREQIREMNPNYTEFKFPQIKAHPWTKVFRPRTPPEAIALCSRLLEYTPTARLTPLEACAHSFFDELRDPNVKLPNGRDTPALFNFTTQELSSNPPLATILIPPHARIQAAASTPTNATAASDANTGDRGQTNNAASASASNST
Description: The GSK-3β phosphorylation level was determined by using a Z′-LYTE assay (Life Technologies). The assay was performed in a 384-well plate. The wells of the testing plate were divided into blank control wells (without the enzyme), enzyme control wells (without the testing substance), and testing wells (with the enzyme and the testing substance at various concentrations). The inhibition rate of the testing substance is expressed as: inhibition %=(E−S)/(E−B)×100, wherein E is the average emission ratio of enzyme control wells; B is the average emission ratio of blank control wells; S is the emission ratio of the testing sample wells. The median effective concentration of each compound (EC50 μM) was calculated by using the resultant inhibition rate of each sample at various concentrations.

[6] = tested on: chronic unpredictable stress (CUS) model in rats; experiment: Forced swimming test in chronic unpredictable stress (CUS) model in rats; format: in vivo; conditions: 7 days
Description: as §1

[7] = tested on: chronic unpredictable stress (CUS) model in rats; experiment: Depression-like behaviors overall in CUS model in rats (forced swimming, sucrose preference, autonomous mobility); format: in vivo; conditions: doses of 30 and 60 mg/kg
Text: The chronic unpredictable stress model is usually used as a depression model. The experimental method is as follows. […] These stressors were randomly scheduled over a one-week period and repeated throughout the 23-day experiment. The non-stress control group was housed under normal conditions. Time: between 9:00 a.m. and 2:00 p.m. Since Day 15, the animals in each group were daily intragastrically administered with the subject medicament and double distilled water based on body weight (blank group and CUS model group) respectively, 60 minutes before the stress. Imipramine (intraperitoneally, IP) was adopted as a positive control. Behavior and sleep electroencephalogram analyses were carried out on Day 22-23 of the stress. On Day 21, 60 minutes after the final administration, a sucrose solution intake test was carried out and sleep electroencephalogram was recorded simultaneously. On Day 22, EPM and forced swimming tests were carried out. Result 1: […]

Compound	ALT [1] [U/L]	AST [1] [U/L]	AST/ALT [1]	melting point [°C]	Percentage of entries into open arms relative to total entries into arms ([2]; 7.5 mg/kg intragastric daily) [%]	Percentage of residence time in open arms ([2]; 7.5 mg/kg intragastric daily)	Percentage of entries into open arms relative to total entries into arms ([2]; 15 mg/kg intragastric daily) [%]	Percentage of entries into open arms relative to total entries into arms ([2]; 30 mg/kg intragastric daily)	Percentage of residence time in open arms ([2]; 30 mg/kg intragastric daily)	Autonomous movement Distance ([3]; 30 mg/kg intragastric daily)	Autonomous movement Speed ([3]; 30 mg/kg intragastric daily)	Sucrose solution preference ([4]; 30 mg/kg intragastric daily)	EC50 [5] [nM]	Percentage of entries into open arms relative to total entries into arms ([2]; 60 mg/kg intragastric daily) [%]	Percentage of residence time in open arms ([2]; 60 mg/kg intragastric daily) [%]	anti-anxiety-like effect [2]	Autonomous movement Distance ([3]; 60 mg/kg intragastric daily) [mm]	Autonomous movement Speed ([3]; 60 mg/kg intragastric daily) [mm/second]	Sucrose solution preference ([4]; 60 mg/kg intragastric daily) [%]	amelioration effect on depression-like behaviors [7]	further results
CCCCOc1c(OC)cc2c3c1Oc1cc4c(cc1OC)CCN(C)C4Cc1ccc(cc1)Oc1cc(ccc1OC)CC3N(C)CC2 (centres unmarked) [Compound 7, 7-butoxy fangchinoline]	82.4 ± 17.9	93.6 ± 17.8	1.14 ± 0.20	155 to 156	43.4 ± 2.6	54.7 ± 4.1^##,$$ %	47.9 ± 4.0	54.3 ± 5.6^##,$ %	61.5 ± 3.0^##,$$ %	11768.25 ± 903.41^##,$$ mm	39.23 ± 5.36^##,$$ mm/second	86.3 ± 3.4^##,$$ %	2330	–	–	–	–	–	–	–	Percentage of residence time in open arms ([2]; 15 mg/kg intragastric daily): 62.1 ± 3.4^##,$$ %; Autonomous movement Distance ([3]; 7.5 mg/kg intragastric daily): 8823.36 ± 673.14^##,$$ mm; Autonomous movement Speed ([3]; 7.5 mg/kg intragastric daily): 29.41 ± 2.64^##,$$ mm/second; Autonomous movement Distance ([3]; 15 mg/kg intragastric daily): 9586.43 ± 756.75^##,$$ mm; Autonomous movement Speed ([3]; 15 mg/kg intragastric daily): 31.95 ± 4.02^##,$$ mm/second; Sucrose solution preference ([4]; 7.5 mg/kg intragastric daily): 70.7 ± 4.1 %; Sucrose solution preference ([4]; 15 mg/kg intragastric daily): 87.1 ± 3.5 %
12-acetoxyberbamine [reference compound]	–	–	–	–	–	–	–	38.2 ± 1.8%	41.9 ± 3.7%	984.41 ± 542.67 mm	3.28 ± 1.35 mm/second	54.29 ± 3.74%	> 10000	36.8 ± 1.6	43.3 ± 3.4	no anti-anxiety-like effect	1135.49 ± 575.54	3.78 ± 1.46	53.34 ± 3.04	no amelioration effect	Forced swimming Immobility time ([6]; 30 mg/kg intragastric daily): 179.2 ± 6.6 s; Forced swimming Immobility time ([6]; 60 mg/kg intragastric daily): 169.9 ± 7.4 s
COc1ccc2cc1Oc1ccc(cc1)CC1c3cc(c(OC)cc3CCN1C)Oc1c(OC)c(OC)c(OC)c3c1C(C2)N(C)CC3 (centres unmarked) [5,7-dimethoxy-fangchinoline, reference compound]	–	–	–	–	–	–	–	38.9 ± 1.8%	43.2 ± 4.1%	1189.64 ± 315.84 mm	3.97 ± 1.48 mm/second	53.7 ± 4.8%	> 10000	37.2 ± 1.4	42.8 ± 4.8	no anti-anxiety-like effect	936.47 ± 366.32	3.12 ± 1.42	55.3 ± 4.2	no amelioration effect	–
COc1cc(Br)c2cc1Oc1ccc(cc1)CC1c3cc(c(OC)cc3CCN1C)Oc1c(OC)c(OC)c(Br)c3c1C(C2)N(C)CC3 (centres unmarked) [Compound 2, 5,14-dibromo-7-methoxy fangchinoline]	87.2 ± 24.7	108.4 ± 17.4	1.24 ± 0.26	187 to 189	45.1 ± 3.8	56.5 ± 3.0^##,$$ %	49.7 ± 4.0	56.2 ± 5.3^##,$$ %	64.5 ± 3.6^##,$$ %	12062.32 ± 903.42^##,$$ mm	40.21 ± 5.36^##,$$ mm/second	88.5 ± 3.1^##,$$ %	2010	–	–	–	–	–	–	–	Percentage of residence time in open arms ([2]; 15 mg/kg intragastric daily): 63.6 ± 4.1^##,$$ %; Autonomous movement Distance ([3]; 7.5 mg/kg intragastric daily): 9031.41 ± 639.33^##,$$ mm; Autonomous movement Speed ([3]; 7.5 mg/kg intragastric daily): 30.10 ± 3.88^##,$$ mm/second; Autonomous movement Distance ([3]; 15 mg/kg intragastric daily): 10116.74 ± 746.48^##,$$ mm; Autonomous movement Speed ([3]; 15 mg/kg intragastric daily): 33.72 ± 4.02^##,$$ mm/second; Sucrose solution preference ([4]; 7.5 mg/kg intragastric daily): 72.5 ± 3.0 %; Sucrose solution preference ([4]; 15 mg/kg intragastric daily): 89.0 ± 4.6^##,$$ %
12-(4-ethoxy)-butoxyberbamine [reference compound]	–	–	–	–	–	–	–	36.6 ± 1.7%	40.1 ± 4.5%	1367.52 ± 683.88 mm	4.56 ± 1.74 mm/second	54.19 ± 4.45%	> 10000	37.2 ± 1.3	39.2 ± 3.5	no anti-anxiety-like effect	935.73 ± 586.51	3.12 ± 1.31	53.27 ± 3.55	no amelioration effect	Forced swimming Immobility time ([6]; 30 mg/kg intragastric daily): 179.5 ± 6.3 s; Forced swimming Immobility time ([6]; 60 mg/kg intragastric daily): 175.3 ± 8.4 s
